From patent US20230321251A1, “LIPOSOME FORMULATION CONTAINING ANTIBACTERIAL AGENT” (priority 2020, published 2023)
≈ marks a conversion by molar mass, not a printed value. Where “and” joins values, the source holds several entries; their conditions need not be identical. Identical values can stand only once.

Key:
[1] = Tissue distribution test (plasma, liver, kidney, lung); settings: ICR mice; for Kidney Concentration / Liver Concentration / Lung Concentration / Plasma Concentration / Kidney Kp / Liver Kp / Lung Kp: iv 5 mg/kg; for concentration at 0.5 h / concentration at 2 h / concentration at 24 h / Kp at 0.5 h / Kp at 2 h / Kp at 24 h: ICR, mouse, in vivo, iv, 5 mg/kg
Experimental: (3) Tissue Distribution of Active Ingredient after Administration of Liposome Formulation
(Tissue Distribution Test)
The compound of the present invention was intravenously administered at a dose of 5 mg/kg to ICR mice. […] Then, the liver, kidney, and lung were removed, and a 25% homogenate was prepared with distilled water. The obtained blood was centrifuged, and plasma was then obtained. Thereafter, each sample was measured using LC/MS/MS. The concentration value ratio (each tissue/plasma) obtained was used as a tissue Kp value.

E. faecium SR7940 = experiment: In vitro antibacterial activity (MIC), agar plate dilution; assay type: cell-based; settings: for minimum inhibitory concentration (MIC): E. faecium SR7940, 1000 cfu/spot
Experimental: (§1) A minimum inhibitory concentration was measured as in vitro antibacterial activity. The minimum inhibitory concentration (MIC: μg/ml) was measured according to the standard method of Japanese Society of Chemotherapy, by an agar plate dilution method using 1000 cfu/spot as an inoculum amount and a susceptibility disk medium as a test medium.
(§2) In the tables, a unit of a numerical value of inhibitory activity is μg/ml. In addition, in the tables, S. aureus represents Staphylococcus aureus and E. faecalis represents Gram-positive group D streptococci (enterococci) that are resident in a normal bacterial flora of a human intestinal tract, and can be causative bacteria of endocarditis and the like after surgery.

E. faecalis SR1004 = experiment: as above; assay type: cell-based; settings: for minimum inhibitory concentration (MIC): E. faecalis SR1004, 1000 cfu/spot
Experimental: as §1, §2

E. faecalis SR7914 = experiment: as above; assay type: cell-based; settings: for minimum inhibitory concentration (MIC): E. faecalis SR7914, 1000 cfu/spot
Experimental: as §1, §2

E. faecium SRM1101 = experiment: as above; assay type: cell-based
Experimental: as §1, §2

S. aureus ATCC700787 = experiment: as above; assay type: cell-based, Staphylococcus aureus
Experimental: as §1, §2

S. aureus VRS1 = experiment: as above; assay type: cell-based, Staphylococcus aureus; settings: for minimum inhibitory concentration (MIC): S. aureus VRS1, 1000 cfu/spot
Experimental: as §1, §2

[2] = Plasma concentration of active ingredient after intravenous administration (PK parameters)
Experimental: (2) Plasma Concentration of Active Ingredient after Administration of Liposome Formulation
1) Animals used: ICR mice were used.
2) Breeding conditions: The mice were allowed to freely take chow and sterilized tap water.
3) Dose and grouping setting: A predetermined dose was intravenously administered. The intravenous dose was 5 mg/kg (n=3).
4) Formulation of dosing solution: The dosing solution was administered as a 5% glucose solution.
5) Administration method: Administration was performed via the tail vein through a syringe with an injection needle.
6) Evaluation item: Blood was collected over time, and the plasma concentration of the compound of the present invention was measured using LC/MS/MS.
7) Parameter analysis: For the plasma concentration of the compound of the present invention, area under the plasma concentration-time curve (AUC), systemic clearance (CLtot), elimination half-life (t½), and steady state distribution volume (Vdss) of the compound of the present invention were calculated by non-compartmental model analysis.

S. aureus ATCC25923 = experiment: In vitro antibacterial activity (MIC), agar plate dilution; assay type: cell-based, Staphylococcus aureus
Experimental: as §1, §2

[3] = ICR mice, intravenous 5 mg/kg, plasma
[4] = ICR, mouse, in vivo, iv, 5 mg/kg

Question: Which “Kidney Concentration” value ([1]; 0.5 hour after administration) does the source give for CN[C@H](CC(C)C)C(=O)N[C@H]1C(=O)N[C@@H](CC(N)=O)C(=O)N[C@H]2C(=O)N[C@H]3C(=O)N[C@H](C(=O)N[C@H](C(=O)O)c4cc(O)cc(O)c4-c4cc3ccc4O)[C@H](O[C@H]3C[C@](C)(N)[C@@H](O)[C@H](C)O3)c3ccc(c(Cl)c3)Oc3cc2cc(c3O[C@@H]2O[C@H](CO)[C@@H](O)[C@H](O)[C@H]2O[C@H]2C[C@](C)(NCc3ccc(-c4ccc(Cl)cc4)cc3)[C@@H](O)[C@H](C)O2)Oc2ccc(cc2Cl)[C@H]1O [Oritavancin drug substance, oritavancin] here?
Answer: 10300 ± 1090 ng/mL

Question: And the “Liver Concentration” value ([1]; 0.5 hour after administration)?
Answer: 14800 ± 1230 ng/mL

Question: And the “Lung Concentration” value ([1]; 0.5 hour after administration)?
Answer: 15100 ± 563 ng/mL

Question: And the “Plasma Concentration” value ([1]; 0.5 hour after administration)?
Answer: 34400 ± 4550 ng/mL

Question: What about the “Kidney Concentration” value ([1]; 2 hours after administration) of the same molecule?
Answer: 8720 ± 538 ng/mL

Question: And the “Liver Concentration” value ([1]; 2 hours after administration)?
Answer: 24900 ± 1400 ng/mL

Question: And the “Lung Concentration” value ([1]; 2 hours after administration)?
Answer: 10100 ± 1010 ng/mL

Question: And the “Plasma Concentration” value ([1]; 2 hours after administration)?
Answer: 14900 ± 1710 ng/mL

Question: And the “Kidney Concentration” value ([1]; 24 hours after administration)?
Answer: 4090 ± 462 ng/mL

Question: And the “Liver Concentration” value ([1]; 24 hours after administration)?
Answer: 38500 ± 2780 ng/mL

Question: And the “Lung Concentration” value ([1]; 24 hours after administration)?
Answer: 3790 ± 388 ng/mL

Question: And the “Plasma Concentration” value ([1]; 24 hours after administration)?
Answer: 63.9 ± 12.0 ng/mL

Question: And the “Kidney Kp” value ([1]; kidney/plasma concentration ratio, 0.5 hour)?
Answer: 0.30 ± 0.04

Question: What about the “Kidney Kp” value ([1]; kidney/plasma concentration ratio, 2 hours) of the same molecule?
Answer: 0.59 ± 0.05

Question: What about the “Kidney Kp” value ([1]; kidney/plasma concentration ratio, 24 hours) of the same molecule?
Answer: 66.12 ± 17.05

Question: What about the “Liver Kp” value ([1]; liver/plasma concentration ratio, 0.5 hour) of the same molecule?
Answer: 0.44 ± 0.08

Question: What about the “Liver Kp” value ([1]; liver/plasma concentration ratio, 2 hours) of the same molecule?
Answer: 1.68 ± 0.10

Question: And the “Liver Kp” value ([1]; liver/plasma concentration ratio, 24 hours)?
Answer: 611.35 ± 72.9

Question: What about the “Lung Kp” value ([1]; lung/plasma concentration ratio, 0.5 hour) of the same molecule?
Answer: 0.44 ± 0.07

Question: What about the “Lung Kp” value ([1]; lung/plasma concentration ratio, 2 hours) of the same molecule?
Answer: 0.68 ± 0.09

Question: What about the “Lung Kp” value ([1]; lung/plasma concentration ratio, 24 hours) of the same molecule?
Answer: 61.19 ± 15.12

Question: What about the “minimum inhibitory concentration (MIC)” value (E. faecium SR7940) of the same molecule?
Answer: 2 µg/mL (≈ 1.12 µM)

Question: What about the “minimum inhibitory concentration (MIC)” value (E. faecalis SR1004) of the same molecule?
Answer: 2 µg/mL and 1 µg/mL

Question: What about the “minimum inhibitory concentration (MIC)” value (E. faecalis SR7914) of the same molecule?
Answer: 2 µg/mL and 1 µg/mL

Question: What about the “minimum inhibitory concentration (MIC)” value (E. faecium SRM1101; E. faecium SRM1101, 1000 cfu/spot) of the same molecule?
Answer: 2 µg/mL and 4 µg/mL

Question: What about the “minimum inhibitory concentration (MIC)” value (S. aureus ATCC700787; S. aureus ATCC700787, 1000 cfu/spot) of the same molecule?
Answer: 4 µg/mL and 2 µg/mL

Question: And the “minimum inhibitory concentration (MIC)” value (S. aureus VRS1)?
Answer: 4 µg/mL and 2 µg/mL

Question: And the CL tot [2, 3]?
Answer: 0.989 ± 0.049 mL/min/kg

Question: And the T1/2 [2, 3]?
Answer: 2.2 ± 1.3 h

Question: With CCCCCCCCCCNCCN[C@@]1(C)C[C@H](O[C@H]2[C@H](Oc3c4cc5cc3Oc3ccc(cc3Cl)[C@@H](O)[C@@H]3NC(=O)[C@H](NC(=O)[C@@H]5NC(=O)[C@H](CC(N)=O)NC(=O)C(NC(=O)[C@@H](CC(C)C)NC)[C@H](O)c5ccc(c(Cl)c5)O4)c4ccc(O)c(c4)-c4c(cc(O)c(CNCP(=O)(O)O)c4O)[C@@H](C(=O)O)NC3=O)O[C@H](CO)[C@@H](O)[C@@H]2O)O[C@@H](C)[C@H]1O (some centres unmarked) [Telavancin drug substance, telavancin] as the molecule, how does the concentration at 0.5 h ([1]; Kidney Concentration, 0.5 hour after administration) read?
Answer: 19000 ± 4110 ng/mL

Question: What about the concentration at 2 h ([1]; Kidney Concentration, 2 hours after administration) of the same molecule?
Answer: 12700 ± 2470 ng/mL

Question: And the concentration at 24 h ([1]; Kidney Concentration, 24 hours after administration)?
Answer: 5930 ± 1600 ng/mL

Question: What about the Kp at 0.5 h ([1]; Kidney Kp, kidney/plasma concentration ratio, 0.5 hour) of the same molecule?
Answer: 1.05 ± 0.23

Question: What about the Kp at 2 h ([1]; Kidney Kp, kidney/plasma concentration ratio, 2 hours) of the same molecule?
Answer: 1.64 ± 0.12

Question: What about the Kp at 24 h ([1]; Kidney Kp, kidney/plasma concentration ratio, 24 hours) of the same molecule?
Answer: 49.9

Question: What about the concentration at 0.5 h ([1]; Liver Concentration, 0.5 hour after administration) of the same molecule?
Answer: 3780 ± 201 ng/mL

Question: What about the concentration at 2 h ([1]; Liver Concentration, 2 hours after administration) of the same molecule?
Answer: 4050 ± 256 ng/mL

Question: What about the concentration at 24 h ([1]; Liver Concentration, 24 hours after administration) of the same molecule?
Answer: 2340 ± 465 ng/mL

Question: What about the Kp at 0.5 h ([1]; Liver Kp, liver/plasma concentration ratio, 0.5 hour) of the same molecule?
Answer: 0.21 ± 0.01

Question: What about the Kp at 2 h ([1]; Liver Kp, liver/plasma concentration ratio, 2 hours) of the same molecule?
Answer: 0.53 ± 0.05

Question: What about the Kp at 24 h ([1]; Liver Kp, liver/plasma concentration ratio, 24 hours) of the same molecule?
Answer: 17.2

Question: And the concentration at 0.5 h ([1]; Lung Concentration, 0.5 hour after administration)?
Answer: 5860 ± 208 ng/mL

Question: And the concentration at 2 h ([1]; Lung Concentration, 2 hours after administration)?
Answer: 2820 ± 162 ng/mL

Question: And the concentration at 24 h ([1]; Lung Concentration, 24 hours after administration)?
Answer: 736 ± 158 ng/mL

Question: What about the Kp at 0.5 h ([1]; Lung Kp, lung/plasma concentration ratio, 0.5 hour) of the same molecule?
Answer: 0.32 ± 0.03

Question: And the Kp at 2 h ([1]; Lung Kp, lung/plasma concentration ratio, 2 hours)?
Answer: 0.37 ± 0.04

Question: What about the Kp at 24 h ([1]; Lung Kp, lung/plasma concentration ratio, 24 hours) of the same molecule?
Answer: 5.75

Question: What about the concentration at 0.5 h ([1]; Plasma Concentration, 0.5 hour after administration) of the same molecule?
Answer: 18200 ± 627 ng/mL

Question: And the concentration at 2 h ([1]; Plasma Concentration, 2 hours after administration)?
Answer: 7700 ± 977 ng/mL

Question: What about the concentration at 24 h ([1]; Plasma Concentration, 24 hours after administration) of the same molecule?
Answer: 51.9 ± 89.9 ng/mL

Question: What about the “minimum inhibitory concentration (MIC)” value (E. faecium SR7940) of the same molecule?
Answer: 2 µg/mL (≈ 1.14 µM)

Question: What about the MIC (E. faecium SR7940; Enterococcus faecium, SR7940, read-out: minimum inhibitory concentration (MIC), E. faecium SR7940, 1000 cfu/spot) of the same molecule?
Answer: 4 µg/mL (≈ 2.28 µM)

Question: And the “minimum inhibitory concentration (MIC)” value (E. faecalis SR1004)?
Answer: 0.5 µg/mL (≈ 0.285 µM)

Question: And the MIC (E. faecalis SR1004; Enterococcus faecalis, SR1004, read-out: minimum inhibitory concentration (MIC), E. faecalis SR1004, 1000 cfu/spot)?
Answer: 1 µg/mL (≈ 0.57 µM)

Question: What about the “minimum inhibitory concentration (MIC)” value (E. faecalis SR7914) of the same molecule?
Answer: 2 µg/mL (≈ 1.14 µM)

Question: And the MIC (E. faecalis SR7914; Enterococcus faecalis, SR7914, read-out: minimum inhibitory concentration (MIC), E. faecalis SR7914, 1000 cfu/spot)?
Answer: 4 µg/mL (≈ 2.28 µM)

Question: And the MIC (E. faecium SRM1101; Enterococcus faecium, SRM1101, read-out: minimum inhibitory concentration (MIC))?
Answer: 4 µg/mL (≈ 2.28 µM)

Question: And the “minimum inhibitory concentration (MIC)” value (S. aureus ATCC25923; S. aureus ATCC25923, 1000 cfu/spot)?
Answer: 0.25 µg/mL (≈ 0.142 µM)

Question: What about the MIC (S. aureus ATCC25923; Staphylococcus aureus, ATCC25923, read-out: minimum inhibitory concentration (MIC), S. aureus ATCC25923, 1000 cfu/spot) of the same molecule?
Answer: 0.5 µg/mL (≈ 0.285 µM)

Question: What about the MIC (S. aureus ATCC700787; Staphylococcus aureus, ATCC700787, read-out: minimum inhibitory concentration (MIC)) of the same molecule?
Answer: 1 µg/mL (≈ 0.57 µM)

Question: What about the “minimum inhibitory concentration (MIC)” value (S. aureus VRS1) of the same molecule?
Answer: 2 µg/mL (≈ 1.14 µM)

Question: What about the MIC (S. aureus VRS1; Staphylococcus aureus, VRS1, read-out: minimum inhibitory concentration (MIC), S. aureus VRS1, 1000 cfu/spot) of the same molecule?
Answer: 4 µg/mL (≈ 2.28 µM)

Question: What about the AUC(0-inf) [2, 4] of the same molecule?
Answer: 57200 ± 12800 ng·h/mL

Question: And the clearance [2, 4]?
Answer: 1.52 ± 0.32 mL/min/kg

Question: What about the half-life [2, 4] of the same molecule?
Answer: 2.7 ± 2.7 h
